The text below walks through data of patent US7572768B2, “Methods for identifying compounds for regulating muscle mass or function using corticotropin releasing factor receptors” (priority 2001, dated 2009).

Each structure is given as a SMILES string.

The subject of experiment [1] is denervation-induced atrophy of skeletal muscle. In words: adrenalectomized rat sciatic nerve denervation-induced atrophy model. It is filed as in vivo. As to conditions: male adrenalectomized rats, 0.003-0.03 mg/kg s.c. twice daily + 30 mg/kg theophylline, nine days. The protocol:
Legend: A—physiological saline (control); B—sauvagine (0.003 mg/kg)+theophylline; C—sauvagine (0.01 mg/kg)+theophylline; D—sauvagine (0.03 mg/kg)+theophylline; #—p≦0.05 compared to corresponding controls. Following denervation of the right sciatic nerve, male adrenalectomized rats (adrenalectomized rats were used to remove the skeletal muscle atrophy-inducing effects of activation of the HPA axis via agonisms of the CRF1R) were injected subcutaneously in the midscapular region twice daily, with either sauvagine or vehicle control (physiological saline) for nine days at the doses shown above. Sauvagine was co-administered with 30 mg/kg theophylline. On day nine, the tibialis anterior, extensor digitorum longus (EDL), soleus, medial gastrocnemius, and plantaris muscles were removed and weighed to determine the degree of atrophy.
(§1) The sciatic nerve denervation atrophy model involves anesthetizing the animal followed by the surgical removal of a short segment of either the right or left sciatic nerve, e.g., in mice the sciatic nerve is isolated approximately at the midpoint along the femur and a 3-5 mm segment is removed. This denervates the lower hind limb musculature resulting in atrophy of these muscles. Typically, innervation to the biceps femoris is left intact to provide satisfactory motion of the knee for virtually normal ambulation. Typically, in untreated animals, muscle mass of the denervated muscles is reduced 30-50% ten days following denervation. Following denervation, test compounds are administered e.g., by injection or by continuous infusion, e.g., via implantation of an osmotic minipump (e.g., Alzet, Palo Alto, Calif.), to determine their effect on denervation induced skeletal muscle atrophy. At various times following denervation, the animals are euthanized and lower leg muscles are dissected rapidly from both the denervated and nondenervated legs, the muscles, cleaned of tendons and connective tissue, are weighed. The extent of atrophy in the affected muscles is analyzed, for example, by measuring muscle mass, muscle cross-sectional area, myofiber cross-sectional area or contractile protein content.

For experiment [2] the test system is unchanged. The experiment is described as follows: mouse sciatic nerve denervation atrophy model. The experiment is classed as in vivo. The method, then:
Legend: A—physiological saline (control); B—sauvagine (0.01 mg/kg)+theophylline; C—sauvagine (0.03 mg/kg)+theophylline; D—sauvagine (0.1 mg/kg)+theophylline; E—sauvagine (1.0 mg/kg)+theophylline; *—p≦0.05 compared to saline. Following denervation of the right sciatic nerve, male mice were injected subcutaneously in the midscapular region twice daily with sauvagine, at the doses indicated above or vehicle control (physiological saline) for nine days. Sauvagine was co-administered with 30 mg/kg theophylline. On day nine, the medial gastrocnemius muscle was removed and weighed to determine the degree of atrophy.
Legend: A—water (control); B—sauvagine (0.1 mg/kg/d); C—sauvagine (0.3 mg/kg/d); D—sauvagine (1.0 mg/kg/d); *—p≦0.05 compared to water. Following denervation of the right sciatic nerve, male mice were dosed with either sauvagine or vehicle control (physiological saline) by continuous infusion using an Alzet osmotic minipump at 5 μl/hr until the end of the experimental period (without additional theophylline). The daily delivered dose of sauvagine is indicated above. Minipump implantation was performed at the time of sciatic nerve denervation. On day nine the tibialis anterior muscle was removed and weighed to determine the degree of atrophy.
Legend: A—water (control); B—sauvagine (1 mg/kg/d); C—urocortin (1.0 mg/kg/d); *—p≦0.05 compared to water. Following denervation of the right sciatic nerve, male mice were dosed with the above indicated agents or vehicle control (physiological saline) by continuous infusion using an Alzet osmotic minipump at 5 μl/hr until the end of the experimental period (without additional theophylline). The daily delivered dose of the agents is indicated above. Minipump implantation was performed at the same time as the sciatic nerve denervation. On day nine the tibialis anterior muscle was removed and weighed to determine the degree of atrophy.
Legend: A-C—wild-type mice; D-F—CRF2R knockout mice. A and D—water (control); B and E—sauvagine (0.3 mg/kg/d); C and F—sauvagine (1.0 mg/kg/d); *—p≦0.05 compared to saline. Following denervation of the right sciatic nerve, female wild-type and CRF2R knockout mice were dosed with sauvagine or vehicle control by continuous infusion using an Alzet osmotic minipump at 5 μl/hr for nine days at the daily delivered dose indicated above. On day nine, the tibialis anterior muscle was removed and weighed to determine the degree of atrophy.
as §1

In the case of `CC[C@H](C)[C@H](NC(=O)[C@@H](NC(=O)[C@H](CC(=O)O)NC(=O)[C@H](CC(C)C)NC(=O)[C@H](CC(C)C)NC(=O)[C@H](CC(C)C)NC(=O)[C@H](CCCNC(=N)N)NC(=O)[C@H](CC(N)=O)NC(=O)[C@H](CC(N)=O)NC(=O)[C@H](C)NC(=O)[C@H](C)NC(=O)[C@H](CCC(N)=O)NC(=O)[C@H](CCC(N)=O)NC(=O)[C@H](CCCCN)NC(=O)[C@H](CCC(=O)O)NC(=O)[C@H](CCCCN)NC(=O)[C@H](CCC(=O)O)NC(=O)[C@H](CCC(N)=O)NC(=O)[C@H](CCCCN)NC(=O)[C@H](CCC(=O)O)NC(=O)[C@@H](NC(=O)[C@H](CCC(=O)O)NC(=O)[C@@H](NC(=O)[C@H](CCSC)NC(=O)[C@H](CCCCN)NC(=O)[C@H](CCCNC(=N)N)NC(=O)[C@H](CC(C)C)NC(=O)[C@H](CC(C)C)NC(=O)[C@H](CCC(=O)O)NC(=O)[C@H](CC(C)C)NC(=O)[C@H](CO)NC(=O)[C@H](CC(C)C)NC(=O)[C@H](CC(=O)O)NC(=O)[C@@H](NC(=O)[C@H](CO)NC(=O)[C@@H](NC(=O)[C@@H]1CCCN1C(=O)[C@@H]1CCCN1C(=O)CNC(=O)[C@@H]1CCC(=O)N1)[C@@H](C)CC)[C@@H](C)CC)[C@@H](C)CC)[C@@H](C)CC)[C@@H](C)O)C(N)=O` [sauvagine], the “denervation-induced atrophy of the tibialis anterior muscle (muscle weight)” value in experiment [1] (FIG. 7A) is on record as “inhibits denervation-induced atrophy”; in experiment [2] (FIG. 2, male mice, 0.1-1.0 mg/kg/d continuous infusion by osmotic minipump, no theophylline, day nine) it was “inhibits denervation-induced atrophy”; in experiment [2] (FIG. 5, male mice, 1 mg/kg/d continuous infusion by osmotic minipump, no theophylline, day nine) it was “inhibit denervation-induced atrophy”; in experiment [2] (FIG. 8, female wild-type mice, 0.3 and 1.0 mg/kg/d by osmotic minipump, nine days), “inhibits the atrophy”. In addition, the “denervation-induced atrophy of the EDL muscle (muscle weight)” value in experiment [1] (FIG. 7B) is “inhibits denervation-induced atrophy”. Moreover, the “hypertrophy of the non-denervated EDL muscle” value in experiment [1] (FIG. 7B) is listed as “statistically significant hypertrophy”. Also, the “denervation-induced atrophy of the soleus muscle (muscle weight)” value in experiment [1] (FIG. 7C) was “inhibits denervation-induced atrophy”. The “denervation-induced atrophy of the medial gastrocnemius muscle (muscle weight)” value is “inhibits denervation-induced atrophy” in experiment [1] (FIG. 7D) and “inhibits denervation-induced atrophy” in experiment [2] (FIG. 1, male mice, 0.01-1.0 mg/kg s.c. twice daily + 30 mg/kg theophylline, nine days). For the same compound, in experiment [1] (FIG. 7E), the “denervation-induced atrophy of the plantaris muscle (muscle weight)” value was “inhibits denervation-induced atrophy”.
